We go through five compounds from patent US20230240297A1, “SELECTIVE HERBICIDES BASED ON SUBSTITUTED ISOXAZOLIN CARBOXAMIDES AND CYPROSULFAMIDE” (Bayer Aktiengesellschaft, priority 2020, published 2023).

What all share (format): in vivo, maize
One data set concerns ZEAMA Abraxas. The data set is described as follows: Tank-mix; post-emergence, crop damage with and without safener. The conditions noted are these: for HER effect + SAF / HER effect: Final assessment; for HER effect: no safener. The method, then:
(§1) Seeds of crops (spring wheat, TRZAS; spring barley, HORVS; maize, ZEAMA) were placed in sandy loam soil in peat pots, covered with soil and cultivated in a greenhouse under good growth conditions. Two to three weeks after sowing, the test plants were treated at the 1 to 3-leaf stage. The herbicide/safener active compound combinations according to the invention, formulated as wettable powders or emulsion concentrates, and, in parallel tests, the correspondingly formulated individual active compounds were sprayed onto the green parts of the plants in various dosages using an amount of water of 300 1/ha (converted).
(§2) The pots were returned under good growing conditions in a glasshouse and a visual assessment of herbicidal effects was made at intervals from 1 to 3 weeks after herbicide application (DAT = days after treatment). Assessment was on a percentage basis in comparison with untreated control plants (0% = no injury, 100% = complete kill).

Data set [1] relates to ZEAMA Sileno. The data set is described as follows: Seed treatment with safener; post-emergence herbicide application. Set-up: Reduction [Difference]: scale not given here. The conditions noted are these: Final assessment; for Reduction [%] / Reduction [Difference]: Cyprosulfamide 0.5 g a.i./kg seed; for Reduction [Difference]: damage without safener - damage with safener; for HER effect + SAF (crop damage with safener): Cyprosulfamide seed treatment 0.5 g a.i./kg seed; for HER effect (crop damage, herbicide without safener): no safener. As to the method:
For the safener seed treatment, sufficient seeds of the respective crops (spring wheat, TRZAS; spring barley, HORVS; maize, ZEAMA) were weighed into screw top glass bottles approximately twice the volume of the seeds.
The specified safeners, formulated as wettable powder (WP) were weighed out so that the specified rates (g a.i./kg seed) would be obtained, dissolved in water (1 ml water per 10 g of seeds), and added to the seeds to produce a slurry.
The bottles were capped and then placed in an overhead shaker (set at medium speed for ca. 60 minutes) so that the seeds were evenly coated with the slurry. The bottles were uncapped and the seeds were either placed on paper and dried for an interval of 3-4 hours prior to sowing, or directly sown. Seeds were placed in sandy loam soil in pots of a diameter of 7-8 cm, covered with soil, and cultivated in a greenhouse under good growth conditions.
Post-emergence application of the specified herbicides was done when the plants had reached growth stage BBCH11-13, on two sets of plants:
a) seed treatment with safener, as described above b) no safener treatment
The herbicides were formulated as WP and sprayed onto the green parts of the plants as an aqueous suspension at an equivalent water application rate of 300 1/ha, with addition of wetting agent and adjuvants (e.g. Mero, 1.5 1/ha; ammonium sulphate, 2 kg/ha)
After application, the test plants were kept in the greenhouse under good growth conditions.
Values in the table below are mean values of at least 2 replicates.

Data set [2] deals with ZEAMA Sileno. The data set is described as follows: Tank-mix; post-emergence, crop damage with and without safener. The conditions noted are these: for HER effect + SAF / HER effect: Final assessment; for HER effect: no safener. As to the method:
as §1, §2

The mark [3] stands for this setting: HER 8 g a.i./ha, cyprosulfamide 50 g a.i./ha.
Setting [4] is: HER 32 g a.i./ha, cyprosulfamide 100 g a.i./ha.
[5] abbreviates: HER dose 8 g a.i./ha + cyprosulfamide 50 g a.i./ha tank-mix.
The mark [6] stands for this setting: HER dose 32 g a.i./ha + cyprosulfamide 100 g a.i./ha tank-mix.

Consider `C=CC1(C(=O)NC2CC=C(C(=O)OC)C2)CC(c2cc(F)cc(F)c2)=NO1` (mixture of isomers) [Example 1.60], for which the “Reduction [%]” value with ZEAMA Abraxas (setting [3]) came to 69%; with ZEAMA Abraxas (setting [4]), 79%; in the data set with ZEAMA Sileno [1] (HER dose 8 g a.i./ha), 94%; in the data set on ZEAMA Sileno [1] (HER dose 32 g a.i./ha) it was 88%. The “Reduction [Difference]” value was 38 with ZEAMA Abraxas (setting [3]), 74 in the data set with ZEAMA Abraxas (setting [4]), 50 in the data set with ZEAMA Sileno [1] (HER dose 8 g a.i./ha) and 57 in the data set on ZEAMA Sileno [1] (HER dose 32 g a.i./ha). For the same compound, the “HER effect + SAF” value in the data set with ZEAMA Abraxas (setting [5]) came out at 17%; in the data set with ZEAMA Abraxas (setting [6]), 20%. In addition, the figures for the HER effect with ZEAMA Abraxas (HER dose 8 g a.i./ha) and in the data set with ZEAMA Abraxas (HER dose 32 g a.i./ha) were 55% and 94%, respectively. Further, the “HER effect + SAF (crop damage with safener)” value in the data set with ZEAMA Sileno [1] (HER dose 8 g a.i./ha) stood at 3%; in the data set with ZEAMA Sileno [1] (HER dose 32 g a.i./ha), 8%. The figures for the “HER effect (crop damage, herbicide without safener)” value in the data set on ZEAMA Sileno [1] (HER dose 8 g a.i./ha) and in the data set on ZEAMA Sileno [1] (HER dose 32 g a.i./ha) were 53% and 65%, respectively.

For `CC1(C(=O)NC2C=CC(C(=O)OCCCl)C2)CC(c2cc(F)cc(F)c2)=NO1` (mixture of isomers) [Example 1.47], in the data set with ZEAMA Abraxas (setting [4]), the “Reduction [%]” value was 84% and the “Reduction [Difference]” value came out at 52. Besides, the “HER effect + SAF” value with ZEAMA Abraxas (setting [6]) is 10%. Besides, in the data set with ZEAMA Abraxas (HER dose 32 g a.i./ha), the HER effect is 62%.

Regarding `C=CC1(C(=O)NC2COC(C(=O)OCc3ccc(OC)cc3)C2)CC(c2cc(C)cc(F)c2)=NO1` (mixture of isomers) [Example 1.86], in the data set with ZEAMA Abraxas (setting [3]), the “Reduction [%]” value is on record as 84% and the “Reduction [Difference]” value amounted to 27. Also, the “HER effect + SAF” value in the data set on ZEAMA Abraxas (setting [5]) came to 5%. For the same compound, the HER effect in the data set with ZEAMA Abraxas (HER dose 8 g a.i./ha) is on record as 32%.

For the compound `C=CC1(C(=O)NC2C=CC(C(=O)O)C2)CC(c2cc(F)cc(F)c2)=NO1` (stereo not shown) [Example 1.58], the “Reduction [%]” value in the data set on ZEAMA Abraxas (setting [3]) was 87%; with ZEAMA Abraxas (setting [4]), 68%; in the data set with ZEAMA Sileno [1] (HER dose 2 g a.i./ha), 100%; with ZEAMA Sileno [1] (HER dose 32 g a.i./ha), 64%. Also, the “Reduction [Difference]” value in the data set with ZEAMA Abraxas (setting [3]) is recorded as 54; in the data set on ZEAMA Abraxas (setting [4]), 65; in the data set with ZEAMA Sileno [1] (HER dose 2 g a.i./ha), 20; in the data set on ZEAMA Sileno [1] (HER dose 32 g a.i./ha), 45. The “HER effect + SAF” value in the data set with ZEAMA Abraxas (setting [5]) is given as 8%; in the data set with ZEAMA Abraxas (setting [6]), 30%. The HER effect is 62% in the data set on ZEAMA Abraxas (HER dose 8 g a.i./ha) and 95% in the data set on ZEAMA Abraxas (HER dose 32 g a.i./ha). The entries for the “HER effect + SAF (crop damage with safener)” value in the data set on ZEAMA Sileno [1] (HER dose 2 g a.i./ha) and in the data set with ZEAMA Sileno [1] (HER dose 32 g a.i./ha) were 0% and 25%, respectively. The “HER effect (crop damage, herbicide without safener)” value in the data set with ZEAMA Sileno [1] (HER dose 2 g a.i./ha) is on record as 20%; in the data set on ZEAMA Sileno [1] (HER dose 32 g a.i./ha), 70%.

For the compound `C=CC1(C(=O)NC2COC(C(=O)OCCOC)C2)CC(c2cc(F)cc(F)c2)=NO1` (mixture of isomers) [Example 1.66], the “Reduction [%]” value was found to be 79% in the data set with ZEAMA Sileno [2] (HER 2 g a.i./ha, cyprosulfamide 50 g a.i./ha); 76% with ZEAMA Sileno [2] (setting [3]); 54% in the data set on ZEAMA Sileno [2] (setting [4]); 100% in the data set with ZEAMA Sileno [1] (HER dose 2 g a.i./ha); 100% in the data set on ZEAMA Sileno [1] (HER dose 8 g a.i./ha); 97% in the data set on ZEAMA Sileno [1] (HER dose 32 g a.i./ha). Moreover, the “Reduction [Difference]” value came out at 26 with ZEAMA Sileno [2] (HER 2 g a.i./ha, cyprosulfamide 50 g a.i./ha, damage without safener - damage with safener); 73 with ZEAMA Sileno [2] (setting [3]); 52 with ZEAMA Sileno [2] (setting [4]); 33 in the data set with ZEAMA Sileno [1] (HER dose 2 g a.i./ha); 96 with ZEAMA Sileno [1] (HER dose 8 g a.i./ha); 94 with ZEAMA Sileno [1] (HER dose 32 g a.i./ha). For the same compound, the “HER effect + SAF” value was found to be 7% in the data set on ZEAMA Sileno [2] (HER dose 2 g a.i./ha + cyprosulfamide 50 g a.i./ha tank-mix), 23% in the data set with ZEAMA Sileno [2] (setting [5]) and 45% in the data set with ZEAMA Sileno [2] (setting [6]). In addition, the HER effect in the data set with ZEAMA Sileno [2] (HER dose 2 g a.i./ha, 0% = no injury, 100% = complete kill) stood at 33%; with ZEAMA Sileno [2] (HER dose 8 g a.i./ha), 96%; with ZEAMA Sileno [2] (HER dose 32 g a.i./ha), 97%. In addition, the “HER effect + SAF (crop damage with safener)” value in the data set with ZEAMA Sileno [1] (HER dose 2 g a.i./ha) amounted to 0%; in the data set on ZEAMA Sileno [1] (HER dose 8 g a.i./ha), 0%; in the data set on ZEAMA Sileno [1] (HER dose 32 g a.i./ha) it was 3%. Further, the figures for the “HER effect (crop damage, herbicide without safener)” value in the data set on ZEAMA Sileno [1] (HER dose 2 g a.i./ha), with ZEAMA Sileno [1] (HER dose 8 g a.i./ha) and with ZEAMA Sileno [1] (HER dose 32 g a.i./ha) were 33%, 96% and 97%, respectively.
